Experimental findings from US8158828B2, “Nuclear receptor binding agents” (priority 2005, dated 2012) are described below.

One test has as its system osteoblasts. The experiment in a line: Osteoblast activity. It counts as cell-based.
Test [1] relates to TRAP positive multinucleated osteoclasts. The experiment in a line: TRAP positive multinucleated osteoclasts from bone marrow cells. Type of test: cell-based, rat. As to conditions: RANKL and GMCSF, 12 days. As for the experimental part: FIG. 7: Effect of the indicated compounds on TRAP positive multinucleated osteoclasts. Bone marrow cells from rat femur was cultured in Alpha MEM+10% csFBS without phenol red in the presence or absence of 30 ng/ml RANKL and 10 ng/ml GMCSF. The cells were treated for 12 days and were stained for tartarate resistant acid phosphatase activity (TRAP) and multinucleated osteoclasts were counted.
Bone marrow cells isolated from rat femur were cultured in Alpha MEM without phenol red+10% sterile FBS without phenol red in the presence or absence of […] RANKL and 10 ng/ml GMCSF. The cells were treated for 12 days were stained for tartarate resistant acid phosphatase activity (TRAP) positive multinucleated osteoclasts and were counted.

The next test relates to uterus. Briefly: In vivo estrogenic activity, uterine weight. On the set-up: species or system rat. As to conditions: female rats, compound alone. As for the experimental part:
Rats that were administered the vehicle alone served as controls.

Another test concerns the target T1, ER-α (Rattus norvegicus, UniProt P06211).
T1 sequence (P06211 1-600): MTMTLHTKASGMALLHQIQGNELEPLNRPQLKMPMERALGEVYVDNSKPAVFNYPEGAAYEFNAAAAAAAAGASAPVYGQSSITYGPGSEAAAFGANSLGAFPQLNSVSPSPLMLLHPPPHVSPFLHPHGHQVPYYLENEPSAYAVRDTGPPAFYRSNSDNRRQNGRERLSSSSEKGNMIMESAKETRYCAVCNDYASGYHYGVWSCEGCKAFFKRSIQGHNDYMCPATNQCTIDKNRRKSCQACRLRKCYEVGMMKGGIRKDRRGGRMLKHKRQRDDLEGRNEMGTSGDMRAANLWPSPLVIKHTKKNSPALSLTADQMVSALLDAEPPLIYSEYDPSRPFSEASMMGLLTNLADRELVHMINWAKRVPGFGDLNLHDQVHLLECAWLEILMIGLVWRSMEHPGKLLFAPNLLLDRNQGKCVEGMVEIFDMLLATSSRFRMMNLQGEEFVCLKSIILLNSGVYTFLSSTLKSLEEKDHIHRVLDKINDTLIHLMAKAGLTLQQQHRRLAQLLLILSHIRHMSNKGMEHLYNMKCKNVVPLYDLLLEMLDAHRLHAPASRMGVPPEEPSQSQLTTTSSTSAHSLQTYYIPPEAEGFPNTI
Briefly: ER-α transactivation, ERE-LUC in COS or 293 cells. Type of test: cell-based. On the set-up: % estardiol activity, ER-α: dose or concentration left out as unconfirmed.

In another test the target is T2, ER-β (Rattus norvegicus, UniProt Q62986).
T2 construct: expressed in transfected cells; host or cells: COS or 293 cells
Briefly: ER-β transactivation, ERE-LUC in COS or 293 cells. Type of test: cell-based. As to conditions: COS or 293 cells. As for the experimental part:
FIG. 2: Effect of the indicated compounds on ER-β transactivation. COS or 293 cells plated in DME without phenol red+10% csFBS at 90,000 cells per well of a 24 well plate were transfected with 0.25 μg ERE-LUC, 0.02 μg CMV-LUC (Renilla) and 50 ng of ER-β by lipofectamine. Twenty four hours after transfection, the cells were treated as indicated in the figure, harvested 48 hrs after transfection and were assayed for firefly and renilla luciferase.
FIG. 6: Effect of the indicated compounds on ER-β transactivation. COS or 293 cells plated in DME without phenol red+10% csFBS at 90,000 cells per well of a 24 well plate were transfected with 0.25 μg ERE-LUC, 0.02 μg CMV-LUC (Renilla) and 50 ng of ER-β by lipofectamine. Twenty four hours after transfection, the cells were treated as indicated in the figure, harvested 48 hrs after transfection and assayed for firefly and renilla luciferase.
FIG. 10: Effect of the indicated compounds on ER-β transactivation. COS or 293 cells plated in DME+10% csFBS at 90,000 cells per well of a 24 well plate were transfected with 0.25 μg ERE-LUC, 0.02 μg CMV-LUC (Renilla) and 50 ng of ER-β by lipofectamine. Twenty four hours after transfection, the cells were treated as indicated in the figure, harvested 48 hrs after transfection and were assayed for firefly and renilla luciferase.
(§1) All the receptors were cloned from rat tissue into the PCR3.1 vector backbone. […] Cells were harvested 48 hrs after transfection, and assayed for firefly and Renilla luciferase activity.
as §1

Test [2] concerns pS2 (gene encoding the trefoil peptides) in MCF-7 cells. Briefly: pS2 gene expression in MCF-7 cells (realtime RT-PCR). As to conditions: 16 hrs. It counts as cell-based. As for the experimental part: MCF-7 cells were plated at 500,000 cells per well of a 6 well plate. RNA was isolated and the message levels of pS2 (gene encoding the trefoil peptides) measured and normalized to 18S ribosomal RNA by realtime polymerase chain reaction (rtPCR).
FIG. 11: Agonistic activity of the indicated compounds in MCF-7 cells. MCF-7 cells were plated at 500,000 cells per well of a 6 well plate. RNA was isolated and the message levels of pS2 gene measured and normalized to 18S ribosomal RNA by realtime rtPCR.
MCF-7 cells were plated at 500,000 cells per well of a 6 well plate. The cells were serum starved for 3 days and then were treated as above for 16 hrs. RNA was isolated and gene expression levels assessed by realtime RT-PCR, following normalization to 18S ribosomal RNA.

T2 sequence (Q62986 whole entry): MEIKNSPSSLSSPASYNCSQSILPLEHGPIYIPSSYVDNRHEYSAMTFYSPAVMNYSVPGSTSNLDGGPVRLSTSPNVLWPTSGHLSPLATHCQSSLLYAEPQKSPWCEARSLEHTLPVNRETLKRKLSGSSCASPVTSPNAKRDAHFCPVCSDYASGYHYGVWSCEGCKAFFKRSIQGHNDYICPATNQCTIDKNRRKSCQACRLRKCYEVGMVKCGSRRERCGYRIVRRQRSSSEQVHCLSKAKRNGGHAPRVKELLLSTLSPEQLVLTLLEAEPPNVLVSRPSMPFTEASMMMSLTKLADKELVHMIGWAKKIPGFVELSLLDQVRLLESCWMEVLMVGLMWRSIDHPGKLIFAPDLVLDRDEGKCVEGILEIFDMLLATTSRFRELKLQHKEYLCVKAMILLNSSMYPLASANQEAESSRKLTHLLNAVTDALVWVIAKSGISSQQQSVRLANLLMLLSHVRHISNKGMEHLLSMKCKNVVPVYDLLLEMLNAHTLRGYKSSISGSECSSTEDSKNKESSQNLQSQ

For `O=C(c1ccccc1)N(c1ccc(O)cc1)c1ccc(O)cc1` [Compound 3d, N,N-bis-(4-hydroxyphenyl)-benzamide], the osteoblast activity entry in the test on osteoblasts is “stimulated osteoblasts”. For the same compound, the “osteoclast differentiation / osteoclast activity” value in test [1] was “suppressed osteoclasts”. The “estrogenic activity in terms of uterine weight” value with uterus is “exhibited estrogenic activity, in terms of increased uterine weight”. Further, at ER-α, the “% estardiol activity, ER-α” value amounted to 48%.

`O=C(c1ccc(O)cc1)N(c1ccccc1)c1ccccc1` [Compound 3e, 4-hydroxy-N,N-diphenyl-benzamide]: in the test on osteoblasts, the osteoblast activity entry was “stimulated osteoblast activity”. The “osteoclast differentiation / osteoclast activity” value in test [1] was “highly suppressive of osteoclast activity”. For the same compound, the “ER-β LUC expression, compound alone” value at ER-β is on record as “most potent in stimulating ER-β”. Besides, the pS2 expression entry in test [2] is reported as “increased pS2 expression levels”. The “estrogenic activity in terms of uterine weight” value in the test with uterus is on record as “exhibited no estrogenic, or anti-estrogenic activity in uterus”. Besides, on ER-α, the “% estardiol activity, ER-α” value was 133%. Moreover, the “ER-α activity (luciferase expression), compound alone” value on ER-α (COS or 293 cells) is “most potent in stimulating ER-α”.
